The record followed here is ChEMBL document CHEMBL1629630, “Inhibition of inositol phosphorylceramide synthase by the cyclic peptide aureobasidin A” (Antimicrob Agents Chemother, 2009).

What is called Ki is a dissociation constant, usually derived from enzyme kinetics or from competition with a known ligand. The IC50 is the concentration at which inhibition is half-maximal. Low values mean inhibition by little substance, high ones a need for much substance.

Each structure is given as a SMILES string. Where “and” joins values, the source holds several entries; their conditions need not be identical. Equal values may be shown once. Calls of active or inactive are those of the source. No cut-off for these calls is given here. Numbered stars: 1 amine (or outer) side, 2 acyl side, 3 side chain; on linkers, the order of the positions; unused ones are H or OH. Square brackets hold non-standard residues; d marks the D form. Peptide text beside a SMILES is read from it. X1 = CC[C@@H](C)[C@@H](O[*:1])C(=O)[*:2]; NMeVal(β-OH) = CN[C@H](C(=O)O)C(C)(C)O; NMeF = CN[C@@H](Cc1ccccc1)C(=O)O; aIle = CC[C@@H](C)[C@H](N)C(=O)O; NMeV = CN[C@H](C(=O)O)C(C)C

In assay [1] the target is T1, Inositol phosphorylceramide synthase (Candida albicans (strain SC5314 / ATCC MYA-2876) (Yeast), UniProt O13332).
T1 sequence (O13332 whole entry): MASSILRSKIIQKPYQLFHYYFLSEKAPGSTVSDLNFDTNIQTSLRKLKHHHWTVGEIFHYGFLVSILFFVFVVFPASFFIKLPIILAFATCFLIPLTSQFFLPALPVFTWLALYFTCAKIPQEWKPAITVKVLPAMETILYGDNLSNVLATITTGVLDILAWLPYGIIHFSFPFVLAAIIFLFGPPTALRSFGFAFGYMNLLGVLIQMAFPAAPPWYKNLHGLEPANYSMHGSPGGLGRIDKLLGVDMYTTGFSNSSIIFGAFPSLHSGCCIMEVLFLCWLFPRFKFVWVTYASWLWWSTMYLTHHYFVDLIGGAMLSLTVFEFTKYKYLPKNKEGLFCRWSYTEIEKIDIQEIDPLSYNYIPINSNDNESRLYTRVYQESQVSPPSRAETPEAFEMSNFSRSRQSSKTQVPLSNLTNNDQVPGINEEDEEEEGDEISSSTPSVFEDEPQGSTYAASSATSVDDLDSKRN
Description: (§1) Inhibition of Candida albicans ATCC 38247 inositol phosphorylceramide synthase preincubated for 30 mins

The target in assay [2] is T2, Aureobasidin-resistance protein (Neosartorya fumigata (Aspergillus fumigatus), UniProt Q9Y745).
T2 sequence (Q9Y745 whole entry): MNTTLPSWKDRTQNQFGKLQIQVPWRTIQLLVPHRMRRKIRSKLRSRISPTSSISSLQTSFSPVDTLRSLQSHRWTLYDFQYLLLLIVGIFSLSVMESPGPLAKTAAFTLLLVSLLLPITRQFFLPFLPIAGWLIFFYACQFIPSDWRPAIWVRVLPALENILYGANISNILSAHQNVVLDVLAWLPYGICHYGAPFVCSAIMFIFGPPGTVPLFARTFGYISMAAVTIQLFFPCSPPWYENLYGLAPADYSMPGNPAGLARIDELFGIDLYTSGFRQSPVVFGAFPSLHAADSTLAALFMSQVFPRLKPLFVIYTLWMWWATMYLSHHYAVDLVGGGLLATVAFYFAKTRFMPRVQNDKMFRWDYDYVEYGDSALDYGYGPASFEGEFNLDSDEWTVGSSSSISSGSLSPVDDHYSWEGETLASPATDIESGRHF
The assay is described as follows: Inhibition of Aspergillus fumigatus inositol phosphorylceramide synthase.

Assay [3] addresses T3, Inositol phosphorylceramide synthase catalytic subunit AUR1 (Saccharomyces cerevisiae S288c, UniProt P36107).
T3 sequence (P36107 whole entry): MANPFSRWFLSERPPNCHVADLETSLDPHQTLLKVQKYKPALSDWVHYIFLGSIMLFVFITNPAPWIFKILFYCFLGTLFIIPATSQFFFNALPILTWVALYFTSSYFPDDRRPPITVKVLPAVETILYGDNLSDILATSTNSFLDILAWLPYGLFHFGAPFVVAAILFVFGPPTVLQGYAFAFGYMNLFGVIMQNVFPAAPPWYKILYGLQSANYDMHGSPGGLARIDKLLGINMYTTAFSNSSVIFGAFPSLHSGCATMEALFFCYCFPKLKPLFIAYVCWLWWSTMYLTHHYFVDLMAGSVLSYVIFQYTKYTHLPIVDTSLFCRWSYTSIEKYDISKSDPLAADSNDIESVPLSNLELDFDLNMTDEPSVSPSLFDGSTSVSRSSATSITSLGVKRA
The assay is described as follows: Inhibition of Saccharomyces cerevisiae inositol phosphorylceramide synthase.

For assay [4], the target named is T4, Inositol phosphorylceramide synthase (Candida albicans (strain SC5314 / ATCC MYA-2876) (Yeast)) (UniProt O13332).
T4 sequence (whole entry): T1 sequence (O13332 whole entry)
The assay is described as follows: Irreversible inhibition of Candida albicans ATCC 38247 inositol phosphorylceramide synthase.

Assay [5] deals with T1, Inositol phosphorylceramide synthase. The assay is described as follows: Inhibition of Candida albicans inositol phosphorylceramide synthase.
Assay [6] has as its target T4, Inositol phosphorylceramide synthase (Candida albicans (strain SC5314 / ATCC MYA-2876) (Yeast)). Particulars: ATCC 38247.
Description: as §1
In assay [7] the target is Inositol phosphorylceramide synthase catalytic subunit AUR1 (Saccharomyces cerevisiae S288c, UniProt P36107). The assay is described as follows: Inhibition of aureobasidin A-resistant Saccharomyces cerevisiae inositol phosphorylceramide synthase preincubated for 30 mins.
For assay [8], the target named is T3, Inositol phosphorylceramide synthase catalytic subunit AUR1. The assay is described as follows: Inhibition of Saccharomyces cerevisiae SJ21R inositol phosphorylceramide synthase preincubated for 30 mins.
Assay [9] concerns the target T4, Inositol phosphorylceramide synthase (Candida albicans (strain SC5314 / ATCC MYA-2876) (Yeast)). The assay is described as follows: Inhibition of Candida albicans ATCC 38247 inositol phosphorylceramide synthase. As to conditions: TDE = time-dependent effect.
Assay [10] has as its target T1, Inositol phosphorylceramide synthase. The assay can be described thus: Reversible inhibition of Candida albicans inositol phosphorylceramide synthase.
In assay [11] the target is T3, Inositol phosphorylceramide synthase catalytic subunit AUR1. The assay is described as follows: Reversible inhibition of Saccharomyces cerevisiae inositol phosphorylceramide synthase.

Molecule `CCCCCCCCC(=O)N(C)C(C(=O)O[C@@H](C(=O)N(C)CCc1ccc(OC)c(OC)c1)c1ccccc1)C(C)(C)O` (stereo partly drawn) registered a Ki in assay [1] of 11800 nM.
Molecule `COc1ccc(CCN(C)C(=O)[C@H](OC(=O)C(N(C)C(=O)CCCCCc2ccccc2)C(C)(C)O)c2ccccc2)cc1OC` (stereo partly drawn) displayed a Ki in [1] of 10500 nM.
Turning to `CCCC(CCC)C(=O)N(C)C(C(=O)O[C@@H](C(=O)N(C)CCc1ccc(OC)c(OC)c1)c1ccccc1)C(C)(C)O` (stereo partly drawn), the affinity in [1] corresponds to a Ki of 7900 nM.
On to `CC[C@@H](C)[C@@H]1NC(=O)[C@@H]2CCCN2C(=O)[C@H](Cc2ccccc2)N(C)C(=O)[C@H](Cc2ccccc2)NC(=O)[C@H](C(C)C)N(C)C(=O)[C@@H]([C@H](C)CC)OC(=O)[C@H](C(C)(C)O)N(C)C(=O)[C@H](CC(C)C)NC(=O)[C@H](C(C)C)N(C)C1=O` [AUREOBASIDIN A] (cyclo(F[NMeF]P[aIle][NMeV]L[NMeVal(β-OH)][X1][NMeV])), for which the IC50 in assay [2], in assay [3] and in [5] was 0.2 nM in each case. Besides, the inhibition result in assay [4] was “Active”. Further, the Ki in assay [5] was 0.55 nM; in assay [7], 1400 nM; in assay [1] it was 0.18 nM; in [8], 0.23 nM. Moreover, the Kinact in assay [6] is 2.5 /us and 1.8 /us. Also, in [9], the inhibition entry was “tde”.
In the case of `CCCCCCCCCC[C@H](C)[C@@H](O)[C@@H](C)/C=C(C)/C=C(\C)C(=O)[C@H](C)/C=C(\C)C(=O)O[C@H](CO)[C@@H](O)[C@H](O)C(=O)O` [KHAFREFUNGIN], the results for the IC50 in [5], in [7] and in assay [8] were 0.6 nM, 11300 nM and 43 nM, respectively. The molecule further gave a Ki in assay [1] of 0.43 nM. In addition, the inhibition result in assay [9] was “tde”.
`C=C1/C=C(\C)[C@H](CC)CC(=O)[C@H](C)C(=O)[C@@](O)(CO)C/C(OC)=C/[C@@H](C)C1` [RUSTMICIN]: the IC50 in [10] was 3.8 nM; in assay [7] it was 27200 nM; in assay [8], 13 nM; in assay [11], 3.8 nM. The molecule also showed a Ki in [1] of 16 nM.
